Where a SMILES comes first, the peptide text is derived from it. Bridges are numbered along the chain shown (N, C = ends). [ ]: non-standard residue; d: D form. The star is where a group is joined. hPhe(3,5-F2-4-CF3) = N[C@@H](CCc1cc(F)c(C(F)(F)F)c(F)c1)C(=O)O; NPrPhe(4-CF3) = CCCN[C@@H](Cc1ccc(C(F)(F)F)cc1)C(=O)O; NMeGly(cPent) = CN[C@H](C(=O)O)C1CCCC1; Ac4c(3,3-F2) = NC1(C(=O)O)CC(F)(F)C1; NMeD = CN[C@@H](CC(=O)O)C(=O)O; NMeL = CN[C@@H](CC(C)C)C(=O)O; Morpholide = C1CN(*)CCO1; Aze = O=C(O)[C@@H]1CCN1; Sar = CNCC(=O)O
Legend:
[1] = biological target: GDP-bound NRAS wild-type protein (Homo sapiens, UniProt P01111); experiment: Binding to NRAS by surface plasmon resonance (SPR), Single Cycle Kinetics; details: SPR; for NRAS/KRAS (ratio of KD value for NRAS to KD value for KRAS) / NRAS/KRAS (ratio of KD value with respect to NRAS to KD value with respect to KRAS): GDP-bound NRAS wild-type vs GDP-bound KRAS wild-type
[2] = biological target: GDP-bound HRAS wild-type protein (Homo sapiens, UniProt P01112); experiment: Binding to HRAS by surface plasmon resonance (SPR), Single Cycle Kinetics; details: SPR; for HRAS/KRAS (ratio of KD value for HRAS to KD value for KRAS) / HRAS/KRAS (ratio of KD value with respect to HRAS to KD value with respect to KRAS): GDP-bound HRAS wild-type vs GDP-bound KRAS wild-type
GDP-bound HRAS wild-type protein, sequence (P01112 whole entry): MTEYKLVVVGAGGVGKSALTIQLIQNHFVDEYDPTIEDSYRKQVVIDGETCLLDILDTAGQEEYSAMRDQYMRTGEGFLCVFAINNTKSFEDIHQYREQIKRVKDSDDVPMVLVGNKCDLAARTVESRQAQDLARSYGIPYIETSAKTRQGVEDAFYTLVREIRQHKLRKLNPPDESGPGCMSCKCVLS

GDP-bound NRAS wild-type protein, sequence (P01111 whole entry): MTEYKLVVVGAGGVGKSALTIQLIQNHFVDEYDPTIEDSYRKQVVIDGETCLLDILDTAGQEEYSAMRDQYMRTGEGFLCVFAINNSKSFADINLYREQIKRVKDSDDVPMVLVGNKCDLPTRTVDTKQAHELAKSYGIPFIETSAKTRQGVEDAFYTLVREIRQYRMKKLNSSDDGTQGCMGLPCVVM

Question: CCCN(C)C(=O)[C@@H]1CC(=O)N(C)[C@@H](CC(F)F)C(=O)N[C@@H]([C@@H](C)CC)C(=O)N(C)CC(=O)N(C)[C@H]2C/C=C\CCN(C2=O)[C@@H](Cc2ccc(C(F)(F)F)cc2)C(=O)N(C)CC(=O)N[C@@H](CCc2ccc(C(F)(F)F)c(OC)c2)C(=O)N2C[C@H](OCC)C[C@H]2C(=O)NC2(CC(C)(C)C2)C(=O)N(C)[C@@H](C2CCCC2)C(=O)N1C [PP2010] was tested. Which “NRAS/KRAS (ratio of KD value for NRAS to KD value for KRAS)” value ([1]; KD ratio) did it give?
Answer: A (a compound having 10 or more and less than 20 is denoted as A)

Question: And the “HRAS/KRAS (ratio of KD value for HRAS to KD value for KRAS)” value ([2]; KD ratio)?
Answer: B (a compound having 3 or more and less than 10 is denoted as B)

Question: With CCO[C@@H]1C[C@H]2C(=O)NC3(CCC3)C(=O)N(C)[C@@H](C3CCCC3)C(=O)N(C)[C@H](C(=O)N(C)C)CC(=O)N(C)[C@@H](CC)C(=O)N[C@@H]([C@@H](C)CC)C(=O)N(C)CC(=O)N(C)[C@H]3CCCCCN(C3=O)[C@@H](Cc3ccc(C(F)(F)F)cc3)C(=O)N(C)CC(=O)N[C@@H](CCc3ccc(C(F)(F)F)c(C)c3)C(=O)N2C1 (stereo in doubt) [PP0883] as the compound, how does the “NRAS/KRAS (ratio of KD value with respect to NRAS to KD value with respect to KRAS)” value ([1]; KD ratio) read?
Answer: B (a compound having 3 or more and less than 10 is denoted as B)

Question: What about the “HRAS/KRAS (ratio of KD value with respect to HRAS to KD value with respect to KRAS)” value ([2]; KD ratio) of the same compound?
Answer: B (a compound having 3 or more and less than 10 is denoted as B)

Question: What does the source list for CCCN1C(=O)CN(C)C(=O)[C@@H]2CCN2C(=O)[C@H]([C@@H](C)CC)NC(=O)[C@H](CC(C)C)N(C)C(=O)C[C@@H](C(=O)N2CCOCC2)N(C)C(=O)[C@H](C2CCCC2)N(C)C(=O)C2(CC(F)(F)C2)NC(=O)[C@@H]2CCCN2C(=O)[C@H](CCc2cc(F)c(C(F)(F)F)c(F)c2)NC(=O)CN(C)C(=O)[C@@H]1Cc1ccc(C(F)(F)F)cc1 [PP0783] ([NMeL]I[Aze][Sar][NPrPhe(4-CF3)][Sar][hPhe(3,5-F2-4-CF3)]P[Ac4c(3,3-F2)][NMeGly(cPent)][NMeD]-Morpholide; lactam N-11)?
Answer: NRAS/KRAS (ratio of KD value with respect to GDP-bound NRAS wild-type protein to KD value with respect to KRAS) ([1]; KD ratio NRAS/KRAS): B (a compound having 3 or more and less than 10 is denoted as B); HRAS/KRAS (ratio of KD value with respect to GDP-bound HRAS wild-type protein to KD value with respect to KRAS) ([2]; KD ratio HRAS/KRAS): B (a compound having 3 or more and less than 10 is denoted as B)

Question: Which results are given for CCC[C@H]1C(=O)N[C@@H]([C@@H](C)CC)C(=O)N(C2CC2)CC(=O)N(C)[C@H]2C/C=C\CCN(C2=O)[C@@H](CC2CCC(F)(F)CC2)C(=O)N(C)CC(=O)N[C@@H](CCc2ccc(C(F)(F)F)c(OC)c2)C(=O)N2C[C@H](OCC)C[C@H]2C(=O)N(C)C2(CCC2)C(=O)N(C)[C@@H](C2CCCC2)C(=O)N(C)[C@H](C(=O)N(C)C)CC(=O)N1C [PP2352]?
Answer: NRAS/KRAS (ratio of KD value with respect to NRAS to KD value with respect to KRAS) [1]: A (a compound having 10 or more and less than 20 is denoted as A); HRAS/KRAS (ratio of KD value with respect to HRAS to KD value with respect to KRAS) [2]: A (a compound having 10 or more and less than 20 is denoted as A)

Question: Which results are given for CC[C@H](C)[C@@H]1NC(=O)[C@H](CC(C)C)N(C)C(=O)C[C@@H](C(=O)N2CCOCC2)N(C)C(=O)[C@H](C2CCCC2)N(C)C(=O)C2(CCC2)NC(=O)[C@@H]2[C@H](O)CCN2C(=O)[C@H](CCc2cc(F)c(C(F)(F)F)c(F)c2)NC(=O)CN(C)C(=O)[C@H](Cc2ccc(C(F)(F)F)cc2)N2CCCCC[C@@H](C2=O)N(C)C(=O)CN(C)C1=O [PP0873]?
Answer: NRAS/KRAS (ratio of KD value with respect to NRAS to KD value with respect to KRAS) ([1]; KD ratio): A (a compound having 10 or more and less than 20 is denoted as A); HRAS/KRAS (ratio of KD value with respect to HRAS to KD value with respect to KRAS) ([2]; KD ratio): B (a compound having 3 or more and less than 10 is denoted as B)

Question: Which results are given for CC[C@H](C)[C@@H]1NC(=O)[C@H](C2CCC2)N(C)C(=O)C[C@@H](C(=O)N(C)CC)N(C)C(=O)[C@H](C2CCCC2)N(C)C(=O)C2(CC(C)(C)C2)NC(=O)[C@@H]2C[C@H](C)CN2C(=O)[C@H](CCc2ccc(C(F)(F)F)c(OC)c2)NC(=O)CN(C)C(=O)[C@H](Cc2ccc(C(F)(F)F)cc2)N2CC/C=C\C[C@@H](C2=O)N(C)C(=O)CN(C)C1=O [PP2009]?
Answer: NRAS/KRAS (ratio of KD value for NRAS to KD value for KRAS) ([1]; KD ratio): A (a compound having 10 or more and less than 20 is denoted as A); HRAS/KRAS (ratio of KD value for HRAS to KD value for KRAS) ([2]; KD ratio): A (a compound having 10 or more and less than 20 is denoted as A)

Question: How did the “NRAS/KRAS (ratio of KD value with respect to NRAS to KD value with respect to KRAS)” value ([1]; KD ratio) turn out when CCO[C@@H]1C[C@H]2C(=O)NC3(CCC3)C(=O)N(C)[C@@H](C3CCCC3)C(=O)N(C)[C@H](C(=O)N(C)C)CC(=O)N(C)[C@@H](CC)C(=O)N[C@@H]([C@@H](C)CC)C(=O)N3CC[C@H]3C(=O)N(C)[C@H]3CC(C)=CCN(C3=O)[C@@H](Cc3ccc(C(F)(F)F)cc3)C(=O)N(C)CC(=O)N[C@@H](CCc3cc(F)c(C(F)(F)F)c(F)c3)C(=O)N2C1 [PP1035] was run?
Answer: C (A compound having a KD ratio of 0.1 or more and less than 3 is denoted as C)

Question: And the “HRAS/KRAS (ratio of KD value with respect to HRAS to KD value with respect to KRAS)” value ([2]; KD ratio)?
Answer: C (A compound having a KD ratio of 0.1 or more and less than 3 is denoted as C)

Source: patent US20250230193A1, “CYCLIC COMPOUND HAVING SELECTIVE KRAS INHIBITORY EFFECT ON HRAS AND NRAS” (CHUGAI SEIYAKU KABUSHIKI KAISHA, priority 2022, published 2025)
